The values that follow come from patent US12268747B2, “Polypeptides having anti-senescent effects and uses thereof” (OneSkin, Inc., priority 2019, dated 2025).

Peptide text beside a SMILES is read from it.

The subject of data set [1] is human primary fibroblasts isolated from 3 healthy donors, UVB exposed. The data set can be described thus: UVB-induced senescence in fibroblasts. The format is cell-based. Conditions: 5 μM, 48 hours after UVB. The protocol: Cellular senescence may be caused by several different stimuli. In order to assess whether Peptide 14 was effective against UVB-induced and chemically-induced senescence, human primary fibroblasts isolated from 3 healthy donors were used. These cells were cultured in DMEM (Dulbecco's Modified Eagle's Medium) supplemented with 10% v.v. fetal bovine serum (FBS), and 1% v.v. of penicillin/streptomycin solution (1,000 U·mL−1). Cells were kept in a 5% CO2, 37° C. and 95% humidity atmosphere. After expansion, these cells were seeded in 96-well plates (4,000 cells per well) and, 6 hours after plating, were submitted to either etoposide (20 μM) treatment for 24 hours, or exposed twice to 0.05 J/cm^2 of UVB radiation. […] After incubation, relative cellular senescence (assessed by the activity of senescence associated β-galactosidase staining relative to untreated control) was analyzed and plotted in column graphs. ATRX foci were also assessed following ATRX immunofluorescence staining. Graphs were built using the average ATRX foci detected per nuclei. […] Data was analyzed using with either t-test or ANOVA followed by a Bonferroni post-hoc test. Statistical significance was determined as p-values equal or lower than 0.05 (FIG. 6).

Another data set has as its system Caenorhabditis elegans. The data set can be described thus: C. elegans healthspan and lifespan. It counts as in vivo. Conditions: 1 μM and 2 μM, no decrease in worm movement at either time point. As to the method: Senotherapeutic strategies can be linked to healthspan and lifespan extension in vivo. In order to assess whether Peptide 14 promotes extended healthspan and lifespan, Caenorhabditis elegans worms were used. Peptide 14 was added in the worm media (M9 buffer media) at different concentrations of 1 μM or 2 μM. Negative control worms received vehicle only. Two healthspan parameters were assessed i) pharyngeal pumping and ii) worm movement. Lifespan was also determined. For pharyngeal pumping analysis, 15 worms had their pharynx movement (pumping) observed daily and counted for 20 seconds. This experiment was repeated 3 times, by 2 different blind observers, employing different populations of animals at different days. Statistical difference was detected by analyzing each individual time point by One-Way ANOVA and Dunnet's post hoc test. All groups were compared with the H2O group. For worm movement analysis, the basic movement of C. elegans, also called thrashing, was measured daily for 15 worms. […] Statistical difference was detected by analyzing each individual time point by One-Way ANOVA and Dunnet's post hoc, and all groups were compared with the H2O group. […] The average lifespan was measured. Statistical difference was detected by analyzing each individual time point by One-Way ANOVA and Dunnet's post hoc, and all groups were compared with the H2O group (FIG. 18).

In data set [2] the test system is Human primary fibroblasts isolated from 3 healthy chronologically aged (elder) donors. Put plainly: 3-week exposure: SA-β-galactosidase senescence and proliferation. It counts as cell-based. Conditions: 3.12 μM, counted at days 7, 14, 21, 28. As to the method: Human primary fibroblasts isolated from 3 healthy chronologically aged (elder) donors were used. These cells were cultured in DMEM (Dulbecco's Modified Eagle's Medium) supplemented with 10% v.v. fetal bovine serum (FBS), and 1% v.v. of penicillin/streptomycin solution (1,000 U·mL−1). Cells were kept in a 5% CO2, 37° C. and 95% humidity atmosphere. After expansion, these cells were seeded in T-75 flasks (250,000 cells per flask) and, 6 hours after plating, were incubated for 3 weeks (21 days) with Peptide 14 at 3.12 μM. A negative control comprised untreated cells, which received vehicle only. Day 0 was defined as the day cells started to be treated with Peptide 14. No Peptide 14 treatment was performed between days 21 and 28. Weekly, cellular senescence was assessed according to senescence associated β-galactosidase staining levels. Data was normalized to untreated group and plotted (FIG. 4, panel A). Cellular proliferation was also determined weekly. At days 7, 14, 21, and 28, cells were trypsinized and counted (FIG. 4, panel B). After counting, 250,000 cells were plated in new T-75 flasks. Three independent experiments (biological replicates) including three technical replicates were performed. Data was analyzed using T-test. Statistical significance was determined as p values equal or lower than 0.05.

In the next data set the test system is fibroblasts, UVB exposed. The data set can be described thus: SA-B-galactosidase staining in UVB-exposed fibroblasts (Example 8). It counts as cell-based, human. Conditions: 48 hours after UVB 2 x 0.05 J/cm^2. The protocol: (§1) In order to shed light into the mechanism of action of Peptide 14 and similar Peptide 13, Akt S473 phosphorylation (FIG. 8, panel A), senescence associated β-galactosidase staining (FIG. 8, panel B), as well as mRNA expression (FIG. 8, panel C) were investigated. For Akt S473 phosphorylation analysis using western blotting, human primary fibroblasts and keratinocytes were used. These cells were used to build human skin equivalents, which were kept in a 5% CO2, 37° C. and 95% humidity atmosphere air liquid interface. Then, skin equivalents were treated with 1 μM of either Peptide 14 or Peptide 13 for 5 days, and protein analysis was performed on the skin equivalents. Protein was isolated and quantified. Equal amounts of protein were loaded in polyacrylamide gels and transferred into a nitrocellulose membrane. […] Relative pAkt S473/GAPDH signal was compared between treated and non-treated samples. For senescence associated B-galactosidase staining experiments, fibroblasts were used. […] Total RNA was isolated, samples were reverse transcribed, and mRNA expression of GAPDH, sirtuin 6 (SIRT6), BLM, and exonuclease 1 (EXO1) genes were determined using qPCR. […] CT values were analyzed using the 2^−ΔΔCt method. […] Data was analyzed using a T-test. Statistical significance was determined as p values equal or lower than 0.05 (FIG. 8).

The subject of a further data set is pAkt S473. The data set can be described thus: Akt S473 phosphorylation western blot in human skin equivalents. It counts as cell-based. Conditions: 1 μM, 5 days. As to the method:
as §1
In general terms: Immunoblotting shows a protein as a band on a membrane.

The test system of data set [3] is human skin equivalents from elder donors. Put plainly: Human skin equivalents: histology score and morphology (Example 18). The format is cell-based. Conditions: 0.01% w/v (or 1 μM), 5 days; vehicle control 21.00. As to the method:
To test the effect of Peptide 13 and Peptide 14 treatment on human skin models and the skin morphology, human primary fibroblasts and keratinocytes isolated from healthy elder donors were used to build human skin equivalents. The skin equivalents were treated with 0.01% w/v (or 1 μM) of Peptide 13 or Peptide 14 for 5 days. The negative controls were treated with formulation only. After the 5-day culture, the skin equivalents were analyzed for epidermal thickness, which was quantified according to total epidermal area. Quality assessment based several parameters was performed by blind analysts. […] A minimal score of 19 was required for batch use. This score was validated internally and shown to decrease with age/senescence of the skin equivalents or cultured cells. Three independent experiments were performed with three technical replicates. Data were analyzed using a t-test. Statistical significance was determined as p-values equal or lower than 0.05. The statistically significant p-values are noted by * for p<0.05; ** for p<0.01; *** for p<0.001; **** for p<0.0001 between the groups.

Data set [4] has as its system p16, BLIMP1, ZYG11B, IL-8, Ki-67, ZIC1, MMP1, HAS2 mRNA in 3D skin equivalents. Put plainly: 3D skin equivalents: relative mRNA expression of senescence, aging and health markers. The format is cell-based, human. As to the method:
3D skin equivalent sections of samples built with cells from elder donors ([…]) were treated with 1 μM Peptide 14 or Peptide 13, or 20 μM Retinoic Acid (RA) and assessed for the effect of the various treatments of various markers of senescence, aging, and health.
Data are presented as 2-ddCt normalized to GAPDH and untreated control. *p<0.05. Peptide 13 and Peptide 14-treated samples generally had similar relative mRNA expression levels for p16, BLIMP1, ZYG11B, IL-8, and Ki-67 in the epidermal layer, and for p16, MMP1, HAS2, IL-8, and Ki-67 in the dermal layer. Peptide 13 and Peptide 14-treated samples generally had lower relative mRNA expression levels than RA-treated samples for p16, BLIMP1, ZYG11B, IL-8, in the epidermal layer and for p16, MMP1, IL-8, and Ki-67 in the dermal layer. Peptide 13 and Peptide 14-treated samples generally had higher relative mRNA expression levels than RA-treated samples for Ki-67 in the epidermal layer and for HAS2 for the dermal layer. Peptide 13 and Peptide 14-treated samples had similar relative mRNA expression levels as RA-treated samples for ZIC1 and Ki-67 for dermal layer.

Data set [5] relates to Primary fibroblasts isolated from 3 healthy chronologically aged patients. The data set can be described thus: SA-B-galactosidase senescence in fibroblasts of aged donors, concentration series. It counts as cell-based, human. Conditions: 1.56-50 μM (Peptide 16: 1.56-25 μM), 48 hours; in at least one of the tested concentrations. As to the method:
Primary fibroblasts isolated from 3 healthy chronologically aged patients were used. Cells were cultured in DMEM (Dulbecco's Modified Eagle's Medium) supplemented with 10% v.v. fetal bovine serum (FBS), and 1% v.v. of penicillin/streptomycin solution (1,000 U·mL−1). Cells were kept in a 5% CO2, 37° C. and 95% humidity atmosphere. After expansion, these cells were seeded in 96-well plates (4,000 cells per well) and, 6 hours after plating the cells were treated with one of 4 senotherapeutic polypeptides (Peptide 14, Peptide 13, Peptide 15, and Peptide 16) and incubated for 48 hours. Each polypeptide was tested at 6 different concentrations: 50 μM, 25 μM, 12.5 μM, 6.25 μM, 3.12 μM, and 1.56 μM, except for Peptide 16, which was tested at 5 different concentrations: 25 μM, 12.5 μM, 6.25 μM, 3.12 μM, and 1.56 μM. A negative control comprised untreated cells, which received vehicle only. After incubation, relative cellular senescence (assessed by the activity of senescence associated B-galactosidase staining relative to untreated control) was analyzed (FIG. 2, panels A-D), in which the Y axis indicates the relative senescence levels normalized to untreated control. Each column corresponds to a different concentration of a polypeptide. Three independent experiments (biological replicates) including three technical replicates were performed. Data was analyzed using Analysis of Variance (ANOVA) and a Bonferroni post-hoc tests. Statistical significance was determined as p values equal or lower than 0.05.

The mark [6] stands for this setting: 1 μM peptide vs 20 μM Retinoic Acid.

As to `CC[C@H](C)[C@H](NC(=O)CNC(=O)[C@H](CCCCN)NC(=O)[C@H](CC(C)C)NC(=O)[C@H](Cc1c[nH]c2ccccc12)NC(=O)[C@H](Cc1c[nH]cn1)NC(=O)[C@H](CCCCN)NC(=O)[C@H](C)NC(=O)[C@@H](NC(=O)[C@@H](N)CCC(=O)O)[C@@H](C)O)C(=O)O` [Peptide 14, ETAKHWLKGI] (H-ETAKHWLKGI-OH; N-terminus and C-terminus assumed), the cell number result in data set [1] was “did not significantly alter”. The “toxicity to C. elegans (worm movement)” value in the data set on Caenorhabditis elegans is listed as “not toxic”. Further, the “cell proliferation vs untreated control” value in data set [2] was “No significant differences”.
For ATAKAWLKGI [Peptide 13], the “SA-B-galactosidase staining in UVB-exposed samples” value in the data set with fibroblasts, UVB exposed is reported as “decreased staining”. Besides, in the data set with pAkt S473, the “pAkt S473 in dermal samples” value was “decreased” and the “pAkt S473 in epidermal samples” value was “dermal samples only”. Further, the “mean of histology scores (maximum 28)” value in data set [3] turned out to be 23.44. Moreover, the “relative mRNA, Peptide 13 vs Peptide 14: p16, BLIMP1, ZYG11B, IL-8, Ki-67 (epidermal); p16, MMP1, HAS2, IL-8, Ki-67 (dermal)” value in data set [4] (1 μM each) was “similar”. Further, in data set [4] (setting [6]), the “relative mRNA vs RA-treated samples: Ki-67 (epidermal), HAS2 (dermal)” value is on record as “higher”; the “relative mRNA vs RA-treated samples: ZIC1 and Ki-67 (dermal)” value was “similar”; the “relative mRNA vs RA-treated samples: p16, BLIMP1, ZYG11B, IL-8 (epidermal); p16, MMP1, IL-8, Ki-67 (dermal)” value was “lower”. Besides, the “relative cellular senescence (SA-B-galactosidase staining) vs untreated control” value in data set [5] is given as “senotherapeutic effects”.
